The text below walks through data of US9062041B2 (Bayer Intellectual Property GmbH, priority 2011, dated 2015).

Holding throughout (assay type): cell-based
The target of assay [1] is EP2 subtype of the human PGE2 receptor (Homo sapiens, UniProt P43116). The assay can be described thus: cAMP antagonism test on the human EP2 receptor (HTRF cAMP detection). The conditions noted are these: hEP2 receptor, read-out: Antagonism hEP2 IC50. Summed up: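 Read-out is a competitive HTRF for cAMP: lysate cAMP displaces cAMP-d2 from Eu cryptate-labelled antibody, and antagonism raises the 665/620 nm ratio. Compound (0.8 nM–16.5 μM) added to EP2 cells 20 min at RT before 60 min PGE2 challenge (3× stock 1.5 nM) with IBMX, followed by 20 min lysis.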
Sequence of EP2 subtype of the human PGE2 receptor (P43116 whole entry): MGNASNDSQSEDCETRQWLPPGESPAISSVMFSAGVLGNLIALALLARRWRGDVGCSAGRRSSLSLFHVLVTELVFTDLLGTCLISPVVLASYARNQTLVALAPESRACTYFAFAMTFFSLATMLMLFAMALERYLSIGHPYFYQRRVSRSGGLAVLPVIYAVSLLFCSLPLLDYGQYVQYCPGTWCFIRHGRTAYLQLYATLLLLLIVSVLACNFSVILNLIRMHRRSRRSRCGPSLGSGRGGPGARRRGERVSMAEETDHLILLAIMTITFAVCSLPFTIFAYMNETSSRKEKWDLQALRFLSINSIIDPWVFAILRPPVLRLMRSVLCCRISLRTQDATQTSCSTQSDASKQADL
(In general: TR-FRET usually uses a lanthanide donor and a delayed reading to cut background.)

For assay [2], the target named is EP4 subtype of the human PGE2 receptor (Homo sapiens, UniProt P35408). The assay can be described thus: cAMP antagonism test on the human EP4 receptor (HTRF cAMP detection). The conditions noted are these: selectivity towards hEP4, IC50 measured by cAMP antagonism test. An outline of the steps: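 Competitive HTRF cAMP read-out (cAMP-d2 vs Eu-cryptate anti-cAMP antibody, 665/620 nm ratio) on lysed human EP4 cells. Compound (0.8 nM–16.5 μM) applied 20 min at RT before 60 min PGE2 challenge (3× solution 0.3 nM, IBMX present); 20 min lysis precedes reading.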
Sequence of EP4 subtype of the human PGE2 receptor (P35408 whole entry): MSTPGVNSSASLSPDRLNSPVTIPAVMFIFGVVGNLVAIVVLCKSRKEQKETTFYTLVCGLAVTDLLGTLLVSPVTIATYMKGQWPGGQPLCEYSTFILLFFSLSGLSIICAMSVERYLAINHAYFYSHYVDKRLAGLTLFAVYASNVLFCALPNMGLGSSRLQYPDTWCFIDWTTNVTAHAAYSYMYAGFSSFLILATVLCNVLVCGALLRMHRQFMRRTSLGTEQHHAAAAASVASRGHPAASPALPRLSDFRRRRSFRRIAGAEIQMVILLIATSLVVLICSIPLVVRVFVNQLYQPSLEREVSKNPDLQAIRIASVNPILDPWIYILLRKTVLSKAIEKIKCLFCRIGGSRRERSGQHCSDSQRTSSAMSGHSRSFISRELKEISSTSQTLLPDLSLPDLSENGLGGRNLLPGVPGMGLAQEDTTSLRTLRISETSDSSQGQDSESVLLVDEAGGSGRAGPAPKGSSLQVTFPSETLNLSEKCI

A further assay deals with T1, human PGD receptor (Homo sapiens, UniProt Q13258).
T1 sequence (Q13258 1-359): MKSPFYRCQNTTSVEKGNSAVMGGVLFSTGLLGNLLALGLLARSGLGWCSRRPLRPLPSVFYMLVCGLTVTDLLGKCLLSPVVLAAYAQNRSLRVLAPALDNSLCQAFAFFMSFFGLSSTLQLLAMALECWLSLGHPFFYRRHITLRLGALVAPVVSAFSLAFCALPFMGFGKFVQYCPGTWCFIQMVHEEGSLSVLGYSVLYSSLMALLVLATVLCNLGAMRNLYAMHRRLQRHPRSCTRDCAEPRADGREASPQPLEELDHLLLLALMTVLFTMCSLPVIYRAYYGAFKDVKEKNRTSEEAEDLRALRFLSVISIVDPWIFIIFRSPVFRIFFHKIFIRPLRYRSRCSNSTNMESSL
The assay can be described thus: cAMP antagonism test on the human prostaglandin D receptor (HTRF cAMP detection). The conditions noted are these: selectivity towards hDP, IC50 measured by cAMP antagonism test. Summed up: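 HTRF competition read-out (665/620 nm ratio ×10000), where higher FRET means less cAMP, i.e. antagonism. Compounds (0.8 nM–16.5 μM) were preincubated 20 min at RT with cells and cAMP-d2, PGD2 (3× solution, 6 nM) in IBMX-containing PBS added for 30 min at RT, then cells lysed 20 min.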

As to `Cc1cc2nn(CC3CN(C(=O)c4ccc(Cl)cc4)C3)cc2cc1C(=O)NCC(F)(F)F` [Example 190, 2-{[1-(4-chlorobenzoyl)azetidin-3-yl]methyl}-6-methyl-N-(2,2,2-trifluoroethyl)-2H-indazol-5-carboxamide], the concentration for half-maximal inhibition (IC50) (usually the concentration needed to halve the response being measured) in assay [1] was 272 nM. Besides, in assay [2], the “Selectivity hEP2/hEP4” value was “xx (xx: 10-100)”. The “Selectivity hEP2/hDP” value on human PGD receptor is “xx (xx: 10-100)”.

With `CCOCCNC(=O)c1ccc2nn(CC3CCN(C(=O)c4ccc(Cl)cc4)CC3)cc2c1OC` [Example 264, 2-{[1-(4-chlorobenzoyl)piperidin-4-yl]methyl}-N-(2-ethoxyethyl)-4-methoxy-2H-indazol-5-carboxamide], the 50% inhibitory concentration (IC50) in assay [1] was found to be 13.7 nM. Further, the “Selectivity hEP2/hEP4” value in assay [2] is given as “xxx (xxx > 100)”. Further, the “Selectivity hEP2/hDP” value on human PGD receptor was “xxx (xxx > 100)”.

On to `Cc1c(C(=O)NCC(C)C)ccc2nn(CC3CCN(C(=O)c4ccc(Oc5ccc(C(F)(F)F)cc5)cc4)CC3)cc12` [Example 404, N-isobutyl-4-methyl-2-[(1-{4-[4-(trifluoromethyl)phenoxy]benzoyl}piperidin-4-yl)methyl]-2H-indazol-5-carboxamide], for which the IC50 in assay [1] is 20.2 nM. Also, the “Selectivity hEP2/hEP4” value in assay [2] is recorded as “xxx (xxx > 100)”. In addition, the “Selectivity hEP2/hDP” value on human PGD receptor is “xxx (xxx > 100)”.

With `COCCNC(=O)c1ccc2nn(CC3CCN(C(=O)c4ccc(-c5ccccc5OC(F)(F)F)cc4F)CC3)cc2c1C` [Example 46, 2-[(1-{[3-fluoro-2′-(trifluoromethoxy)-biphenyl-4-yl]-carbonyl}piperidin-4-yl)methyl]-N-(2-methoxyethyl)-4-methyl-2H-indazol-5-carboxamide], the IC50 in assay [1] amounted to 4.91 nM. In assay [2], the “Selectivity hEP2/hEP4” value was “xxx (xxx > 100)”. Besides, the “Selectivity hEP2/hDP” value on human PGD receptor was “xxx (xxx > 100)”.

For `CCNC(=O)c1ccc2nn(CC3CCN(C(=O)c4ccc(Cl)cc4)CC3)cc2c1C` [Example 242, 2-{[1-(4-chlorobenzoyl)piperidin-4-yl]methyl}-N-ethyl-4-methyl-2H-indazol-5-carboxamide], in assay [1], the half-inhibitory concentration (IC50) was determined as 305 nM. For the same compound, the “Selectivity hEP2/hEP4” value in assay [2] was “xx (xx: 10-100)”. In addition, on human PGD receptor, the “Selectivity hEP2/hDP” value was “xx (xx: 10-100)”.

On to `COCCNC(=O)c1ccc2nn(CC3CCN(C(=O)c4ccc(F)cc4)CC3)cc2c1C` [Example 22, 2-{[1-(4-fluoro-benzoyl)piperidin-4-yl]methyl}-N-(2-methoxyethyl)-4-methyl-2H-indazol-5-carboxamide], for which the IC50 in assay [1] stood at 30.3 nM. The “Selectivity hEP2/hEP4” value in assay [2] was “xxx (xxx > 100)”. Moreover, at human PGD receptor, the “Selectivity hEP2/hDP” value is listed as “xxx (xxx > 100)”.

On to `Cc1c(C(=O)NCCOC(C)C)ccc2nn(CC3CCN(C(=O)c4ccc(C5CC5)cc4)CC3)cc12` [Example 101, 2-{[1-(4-cyclopropyl-benzoyl)piperidin-4-yl]methyl}-N-(2-isopropoxyethyl)-4-methyl-2H-indazol-5-carboxamide], for which, in assay [1], the IC50 was 6.58 nM. For the same compound, in assay [2], the “Selectivity hEP2/hEP4” value was “xxx (xxx > 100)”. Further, the “Selectivity hEP2/hDP” value at human PGD receptor is “xxx (xxx > 100)”.

On to `Cc1c(C(=O)NCC2CCCCO2)ccc2nn(CC3CN(C(=O)c4ccc(Cl)cc4)C3)cc12` (single isomer, unassigned) [Example 145, (R or S)-2-{[1-(4-chlorobenzoyl)azetidin-3-yl]methyl}-4-methyl-N-(3,4,5,6-tetrahydro-2H-pyran-2-ylmethyl)-2H-indazol-5-carboxamide], for which the IC50 in assay [1] worked out at 18.8 nM. In assay [2], the “Selectivity hEP2/hEP4” value is recorded as “xxx (xxx > 100)”. Also, the “Selectivity hEP2/hDP” value at human PGD receptor is given as “xxx (xxx > 100)”.

Take `Cc1c(C(=O)NCCN2CCC(F)(F)C2)ccc2nn(CC3CCN(C(=O)c4ccc(S(F)(F)(F)(F)F)cc4)CC3)cc12` [Example 68, N-[2-(3,3-difluoropyrrolidin-1-yl)ethyl]-4-methyl-2-({1-[4-(pentafluoro-λ^6-sulphanyl)benzoyl]piperidin-4-yl}methyl)-2H-indazol-5-carboxamide]: in assay [1], the IC50 turned out to be 17.7 nM. In assay [2], the “Selectivity hEP2/hEP4” value was “xxx (xxx > 100)”. Further, the “Selectivity hEP2/hDP” value on human PGD receptor is “xxx (xxx > 100)”.

Take `COCCNC(=O)c1ccc2nn(CC3CCN(C(=O)c4ccc(-c5ccc(Cl)cc5OC)cc4)CC3)cc2c1C` [Example 381, 2-({1-[(4′-chloro-2′-methoxybiphenyl-4-yl)carbonyl]piperidin-4-yl}methyl)-N-(2-methoxyethyl)-4-methyl-2H-indazol-5-carboxamide]: the IC50 in assay [1] came to 5.84 nM. In addition, the “Selectivity hEP2/hEP4” value in assay [2] was “xxx (xxx > 100)”. In addition, the “Selectivity hEP2/hDP” value at human PGD receptor was “xxx (xxx > 100)”.

`Cc1c(C(=O)NCC2CCO2)ccc2nn(CC3CCN(C(=O)c4ccc(Cl)cc4)CC3)cc12` (racemic) [Example 412, (+/−)-2-{[1-(4-chlorobenzoyl)piperidin-4-yl]methyl}-4-methyl-N-(oxetan-2-ylmethyl)-2H-indazol-5-carboxamide]: the half-maximal inhibitory concentration (IC50) in assay [1] came to 63.5 nM. The “Selectivity hEP2/hEP4” value in assay [2] is “xxx (xxx > 100)”. The “Selectivity hEP2/hDP” value on human PGD receptor was “xxx (xxx > 100)”.

Consider `COCCNC(=O)c1ccc2nn(CC3CCN(C(=O)c4ccc(-c5cnc(C(F)(F)F)nc5)cc4)CC3)cc2c1C` [Example 382, N-(2-methoxyethyl)-4-methyl-2-[(1-{4-[2-(trifluoromethyl)pyrimidin-5-yl]-benzoyl}piperidin-4-yl)methyl]-2H-indazol-5-carboxamide], for which the concentration for half-maximal inhibition (IC50) in assay [1] turned out to be 19.4 nM. The “Selectivity hEP2/hEP4” value in assay [2] was “xxx (xxx > 100)”. Further, the “Selectivity hEP2/hDP” value at human PGD receptor is given as “xxx (xxx > 100)”.

With `COCCNC(=O)c1cc2cn(CC3CN(C(=O)c4ccc(C(F)(F)F)cc4)C3)nc2cc1C` [Example 186, N-(2-methoxyethyl)-6-methyl-2-({1-[4-(trifluoromethyl)benzoyl]azetidin-3-yl}methyl)-2H-indazol-5-carboxamide], the IC50 in assay [1] is 51.9 nM. In addition, the “Selectivity hEP2/hEP4” value in assay [2] is “xxx (xxx > 100)”. On human PGD receptor, the “Selectivity hEP2/hDP” value is “xxx (xxx > 100)”.

Consider `COCCNC(=O)c1ccc2nn(CC3CCN(C(=O)c4ccc(-c5ccc(OC)cc5)cc4F)CC3)cc2c1C` [Example 43, 2-({1-[(3-fluoro-4′-methoxybiphenyl-4-yl)carbonyl]piperidin-4-yl}methyl)-N-(2-methoxyethyl)-4-methyl-2H-indazol-5-carboxamide], for which the IC50 in assay [1] is 4.82 nM. In addition, the “Selectivity hEP2/hEP4” value in assay [2] is given as “xxx (xxx > 100)”. Also, on human PGD receptor, the “Selectivity hEP2/hDP” value is “xxx (xxx > 100)”.

`Cc1c(C(=O)NCC(C)OCC2CC2)ccc2nn(CC3CCN(C(=O)c4ccc(C5CC5)cc4)CC3)cc12` (racemic) [Example 106, (+/−)-2-{[1-(4-cyclopropylbenzoyl)piperidin-4-yl]-methyl}-N-[2-(cyclopropyl-methoxy)propyl]-4-methyl-2H-indazol-5-carboxamide]: the IC50 in assay [1] turned out to be 150 nM. Further, in assay [2], the “Selectivity hEP2/hEP4” value is “xxx (xxx > 100)”. The “Selectivity hEP2/hDP” value at human PGD receptor is on record as “xxx (xxx > 100)”.

As to `Cc1c(C(=O)NCC(C)OC2CCC2)ccc2nn(CC3CN(C(=O)c4ccc(Cl)cc4)C3)cc12` (single isomer, unassigned) [Example 155, (S or R)-2-{[1-(4-chlorobenzoyl)azetidin-3-yl]methyl}-N-[2-(cyclobutyloxy)-propyl]-4-methyl-2H-indazol-5-carboxamide], the half-inhibitory concentration (IC50) in assay [1] amounted to 29.4 nM. Besides, the “Selectivity hEP2/hEP4” value in assay [2] was “xxx (xxx > 100)”. Further, on human PGD receptor, the “Selectivity hEP2/hDP” value is on record as “xxx (xxx > 100)”.
